In PubChem BioAssay (NCI) one finds TGI data, which are given here for 14 molecules.

One may read the TGI as the concentration giving total growth inhibition. A higher TGI goes with lower sensitivity of the cells.

What all share (test): DTP human tumour cell line panel, 48 h
In assay [1] the test system is MOLT-4 leukemia.
The subject of assay [2] is HL-60(TB) leukemia.
Assay [3] deals with COLO 205 colon.
For assay [4], the system named is A549 NSCLC.
Assay [5] concerns NCI-H23 lung.
Assay [6] concerns OVCAR-3 ovarian.
For assay [7], the system named is NCI-H460 lung.
The subject of assay [8] is K-562 leukemia.
The subject of assay [9] is SN12C renal.
The subject of assay [10] is HCT-116 colon.
In assay [11] the test system is RPMI-8226 leukemia.
Assay [12] relates to HOP-62 NSCLC.
Assay [13] has as its system SF-295 CNS.
In assay [14] the test system is IGROV1 ovarian.
The test system of assay [15] is UO-31 renal.
In assay [16] the test system is LOX IMVI melanoma.
Assay [17] relates to SK-MEL-2 melanoma.
The test system of assay [18] is MALME-3M melanoma.
Assay [19] relates to OVCAR-4 ovarian.
Assay [20] relates to DMS 114 small cell lung.

Each structure is given as a SMILES string.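 Cultured in 96-well plates, cells were exposed to test compound for 48 hours across five concentrations. Definition used: TGI = concentration required for complete inhibition of growth.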 A value given as a limit tells only on which side of the number the result lay.

As for `O=C(/C=C/c1ccccc1)CCN1CCN(CCC(=O)/C=C/c2ccccc2)CC1`, the TGI in assay [1] was 85.5 µM; in [2] it was over 100 µM; in assay [3] it was 31.1 µM; in [4], over 100 µM; in [5], 31.2 µM; in [6], 30.7 µM. Further, the TGI in assay [7] is 31 µM; in [8] it was over 100 µM; in [9], 21.7 µM; in assay [10], 5.28 µM; in [11] it was over 100 µM; in assay [12], 43.9 µM. The TGI in assay [13] is 31.2 µM; in [14], 33.1 µM; in [15], 30.8 µM; in [16], 5.88 µM; in assay [17], 37.5 µM; in [18], 30.9 µM. The molecule further returned a TGI in [19] of 39.3 µM.

On to `Nn1c(NNC(=O)C(=O)Nc2cc(Cl)c(Cl)cc2Cl)n[nH]c1=S`, for which the TGI in [3], in [4], in assay [5], in assay [6], in assay [7] and in assay [8] was over 100 µM each time. The TGI in [9], in assay [10], in assay [12], in [13], in assay [14] and in assay [15] was over 100 µM each time. In addition, the TGI in assay [20], in [16], in assay [18] and in assay [19] was over 100 µM throughout.

As for `O=C1c2ccccc2S(=O)(=O)c2c1cccc2[N+](=O)[O-]`, the TGI in assay [1] is 6.04 µM; in assay [2], 4.97 µM; in [3] it was 2.77 µM; in [4] it was over 10 µM; in assay [5], over 8.17 µM; in assay [6], 2.51 µM. In addition, the TGI in assay [7] was over 10 µM; in assay [8], over 10 µM; in assay [9] it was 6.56 µM; in assay [10], 2.63 µM; in assay [11] it was 5.94 µM; in assay [12] it was over 10 µM. Moreover, the TGI in assay [13] was over 10 µM; in assay [14], 5.08 µM; in [15], 3.92 µM; in assay [16] it was 5.21 µM; in assay [17], over 10 µM; in [18], 3.02 µM. The molecule also gave a TGI in [19] of 4.6 µM.

For `O=C(C1OC1c1ccc(O)cc1)C12CC3CC(CC(C3)C1)C2` (stereo not drawn), the TGI in assay [1] is over 55.2 µM; in assay [2], over 43.4 µM; in [3], over 76.9 µM; in [4], over 100 µM; in [5], over 100 µM; in assay [6] it was over 64.8 µM. Further, the TGI in [7] is over 100 µM; in assay [8], over 61.3 µM; in assay [9] it was over 69.7 µM; in assay [10] it was over 69.8 µM; in [11] it was over 73 µM; in [12], over 100 µM. Moreover, the TGI is over 100 µM in assay [13]; over 100 µM in assay [14]; over 86.1 µM in assay [15]; over 56.1 µM in [16]; over 100 µM in assay [17]; 98.9 µM in assay [18]. This molecule also had a TGI in assay [19] of over 100 µM.

Take `COc1ccc2oc(=N)c(C(=O)NCc3ccccc3)cc2c1`: the TGI was over 100 µM in assay [1]; over 100 µM in assay [2]; over 100 µM in assay [3]; over 100 µM in [4]; 43.1 µM in [5]; over 100 µM in assay [6]. The TGI in [7] is over 100 µM; in assay [8], 86.8 µM; in assay [9], over 100 µM; in [10], over 100 µM; in assay [11], over 100 µM; in [12], 55.8 µM. Further, the TGI in [13] was 65 µM; in assay [14], 60.8 µM; in [15] it was over 100 µM; in assay [16] it was over 100 µM; in assay [17], 43.5 µM; in assay [18], 39.3 µM. In assay [19], this molecule registered a TGI of over 100 µM.

Turning to `CC(=O)N1C(Nc2ccccn2)CCN1c1ccccc1` (stereo not drawn), the TGI in [1], in assay [2], in [3], in assay [4], in assay [5] and in assay [6] was over 10 µM each time. The TGI in assay [7], in assay [8], in [9], in assay [10], in [11] and in assay [12] was over 10 µM each time. The TGI in [13], in assay [14], in assay [15], in [16], in [17] and in [18] was over 10 µM throughout. The same molecule registered a TGI in [19] of over 10 µM.

For `CN(CC1(CO)CCC1)c1cc(Cl)nc(N)n1`, the TGI in assay [1], in assay [2], in assay [3], in [4], in assay [5] and in assay [6] was over 100 µM in each case. Further, the TGI in assay [7], in assay [8], in assay [9], in assay [10], in [11] and in assay [12] was over 100 µM each time. The TGI in [13], in [14], in assay [15], in [16], in assay [17] and in [18] was over 100 µM in each case. The TGI in [19] is over 100 µM.

Regarding `O=CC(=C(I)I)c1ccccc1`, the TGI in assay [1] was found to be 0.944 µM; in [2], 0.275 µM; in assay [3] it was 6.79 µM; in [4] it was 41.8 µM; in assay [5], 4.97 µM; in assay [6], 3.69 µM. Also, the TGI in assay [7] was found to be 40.9 µM; in assay [8], 1.34 µM; in [9], 6.39 µM; in assay [10], 2.78 µM; in assay [11] it was 2.62 µM; in assay [12], 19.5 µM. The TGI in assay [13] amounted to 31.2 µM; in [14] it was 11.2 µM; in assay [15], 7.63 µM; in [16], 4.06 µM; in assay [17], 23.2 µM; in [18], 4.4 µM. Further, in [19], the TGI was determined as 4.37 µM.

For the molecule `O=c1c2nn3c(=O)n(-c4ccccc4)c(=O)c3nn2c(=O)n1-c1ccccc1`, the TGI in assay [1], in assay [2], in assay [3], in assay [4], in assay [5] and in [6] was over 100 µM throughout. The TGI in [7], in assay [8], in assay [9], in assay [10], in assay [11] and in assay [12] was over 100 µM in each case. Further, the TGI in assay [13], in assay [14], in assay [15], in [16], in [17] and in [18] was over 100 µM each time. The TGI in assay [19] is over 100 µM.

With `CN(C)CCCNC(=O)CCNC(=O)c1cc(NC(=O)c2cc(NC(=O)c3cc(NC(=O)c4nc(NC(=O)CCCNC(=O)c5cc(NC(=O)c6cc(NC(=O)c7cc(NC(=O)c8nccn8C)cn7C)cn6C)cn5C)cn4C)cn3C)cn2C)cn1C`, the TGI in assay [1], in assay [2], in assay [3], in [4], in assay [5] and in [6] was over 100 µM each time. In addition, the TGI in assay [7], in assay [8], in assay [9], in [10], in assay [11] and in assay [12] was over 100 µM throughout. For the same molecule, the TGI in [13], in assay [14], in [15], in assay [16], in [17] and in [18] was over 100 µM throughout. In assay [19], the TGI is over 100 µM.

`CC(=O)NC(CS/N=N/c1nc[nH]c1C(N)=O)C(=O)O` (stereo not drawn): the TGI was over 36.1 µM in assay [1]; over 23.7 µM in assay [2]; over 100 µM in [3]; over 100 µM in [4]; over 100 µM in assay [5]; over 100 µM in [6]. The TGI was over 100 µM in assay [7]; over 100 µM in assay [8]; over 55.9 µM in assay [9]; over 100 µM in [10]; over 31.6 µM in assay [11]; over 100 µM in [12]. In addition, the TGI in [13] was over 100 µM; in assay [14], over 100 µM; in assay [15], over 100 µM; in assay [16], over 100 µM; in assay [17], over 100 µM; in [18], over 29.3 µM. For the same molecule, the TGI in [19] was over 100 µM.

For the molecule `CSc1ncc2c(C#N)c3sc4ccccc4n3c(=O)c2n1`, the TGI in [1], in [2], in assay [3], in [4], in [5] and in assay [6] was over 100 µM throughout. For the same molecule, the TGI in [7], in assay [8], in assay [9], in assay [10], in assay [11] and in assay [12] was over 100 µM in each case. The TGI in assay [13], in [14], in assay [15], in [16], in assay [17] and in [18] was over 100 µM each time. This molecule showed a TGI in assay [19] of over 100 µM.

Turning to `CCOC(=O)N/N=C(/OCC)c1ccccc1`, the TGI in assay [1], in [2], in [3], in [4], in assay [5] and in assay [6] was over 100 µM throughout. Further, the TGI in [7], in assay [8], in [9], in assay [10], in assay [11] and in assay [12] was over 100 µM throughout. For the same molecule, the TGI in assay [13], in [14], in assay [15], in [16], in [17] and in [18] was over 100 µM each time. The TGI in assay [19] was over 100 µM.

Regarding `O=c1cc(NNc2ccccc2)[nH]c(=S)[nH]1`, the TGI was 91.7 µM in assay [1]; 62.6 µM in assay [2]; over 100 µM in [3]; over 100 µM in assay [4]; over 100 µM in [5]; 31.4 µM in assay [6]. Besides, the TGI was over 100 µM in assay [7]; 80.2 µM in assay [8]; over 100 µM in assay [9]; 53.9 µM in assay [10]; 58.6 µM in [11]; over 100 µM in assay [12]. In addition, the TGI in [13] is over 100 µM; in assay [14], over 100 µM; in assay [15] it was over 100 µM; in assay [16], 31.3 µM; in assay [17], 61.3 µM; in assay [18], over 100 µM. In assay [19], this molecule showed a TGI of over 100 µM.
